Entries after “also recorded” stand apart in the source; their conditions may differ.
Assays:
primary microglial cells = test: Microglial phagocytosis of FAM-labeled Aβ1-42; assay type: cell-based, mouse; settings: 500 nM FAM-Aβ1-42
Procedure: (4A) Analysis of phagocytosis of primary microglia cells from wild type (wt) and iNOS deficient (iNOS (−/−)) mice exposed to 500 nM fibrillar FAM labeled Aβ1-42 peptide for up to 6 h.
Primary microglial cell cultures were prepared as previously described. Briefly, mixed glial cultures were prepared from newborn mice and cultured in DMEM supplemented with 10% FCS and 100 U ml^−1 penicillin/streptomycin. After 10-14 days of primary cultivation, microglial cells were harvested by shake off.
Microglial phagocytosis of FAM-labeled Aβ1-42 (FAM-Aβ) (Anaspec, San Diego, Calif.) was measured by plate based assay. Cells were plated at 50000 cells per well. After 1 h cells Aβ was added to a final concentration of 500 nM and incubated. Finally, the Aβ-containing medium was removed and extracellular Aβ was quenched with 100 μl 0.2% trypan blue in PBS pH 4.4 for 1 min. After aspiration fluorescence was measured at 485 nm excitation/535 nm emission using a Spectrafluor Plus reader (Tecan, Austria). To normalize for cell numbers 100 μl 50 μg/ml H33342 in PBS was added, incubated for 30 min and the fluorescence measured at 360 nm excitation/465 nm emission.

APP/PS1 mice [1] = test: Hippocampal LTP recording on brain slices of treated mice; assay type: in vivo, mouse
Text: (n=5+/−SEM) Right panel: Evaluation of the early (slope 1; […]; […]) of the amplitude of the mean fEPSP (n=5+/−SEM of ten minutes recordings, one-way ANOVA, Newman-Keuls post test, *p<0.05; **p<0.01; ***p<0.001) (2B) Determination of the slope of the mean fEPSP as in A. Right panel: Evaluation of the amplitude of the mean fEPSP (2C) Immunblot of brain homogenates and synaptosomal fractions in wild type and APP/PS1 animals at 12 month of age using an anti-S-nitrocystein specific antibody. (2D) Coomassie stain of anti-S-nitrocystein antibody precipitated synaptosomal fractions from wild type, APP/PS1, APP/PS1 iNOS (−/−) and APP/PS1 L-NIL mice separated by SDS-PAGE (2E) Protein sequence of Hsp75/mortalin. […]
Physiological recordings were performed on brain slices from 3 month old male and female mice, obtained after anesthetization with isoflurane and decapitation. […] Basal synaptic transmission (BST) was assessed by plotting the current (mA) against the peak amplitudes of fEPSP to generate input-output relations. Paired pulse facilitation (PPF) were recorded by applying interstimulus intervals of 30, 50, 75 and 100 ms. For long term potentiation (LTP) experiments a 15 min baseline were recorded with a interpulse interval of one minute at an intensity that evoked a response approximately 30% of maximum fEPSP. […]

APP/PS1 mice [2] = test: Eight arm radial maze test; assay type: in vivo, mouse
APP/PS1 mice [3] = test: Brain extract Aβ immunoblot and Aβ1-40/Aβ1-42 ELISA; assay type: in vivo, mouse
recombinant neprilysin = target: T1, recombinant neprilysin (Homo sapiens, UniProt P08473); test: Fluorogenic substrate enzymatic assay, neprilysin; assay type: biochemical; settings: preincubation with different concentrations of Sin-1
T1 construct: purchased R&D
Procedure: (§1) Afterwards the substrate was added to a final concentration of 10 μM. The hydrolysis of substrate V was measured based on the increase of fluorescence (exitation 320 nm/emission 405 nm) using a Spectrafluor Plus (Tecan, Austria) plate reader for a time period of up to 60 min in 1 min intervals at 37 C. Determination of IDE activity in mouse brain was performed using the fluorogenic peptide substrate 2-aminobenzoyl-[…]-ethylenediamine-2,4-dinitrophenyl (Bachem, Switzerland)^21. For that mice brains were homogenized in PBS containing 1 mM AEBSF, extracted with 1% Tx-100 and centrifuged at 100000×g for 30 min. 10 μg of supernatants were incubated with 25 μM phosphoramidon to inhibit endogenous neprilysin activity. The fluorogenic substrate was added to a final concentration of 20 μM and the resulting fluorescence signal was measured (excitation 320 nm/emission 413 nm) every 3 min for up to 2 h at 37° C. using a infinite 200 plate reader (Tecan, Austria). Evaluation was done within the linear range of the reaction.

recombinant IDE [4] = target: T2, recombinant IDE (Homo sapiens, UniProt P14735); test: Fluorogenic substrate enzymatic assay, IDE; assay type: biochemical; settings: 1 mM Sin-1, 30 min preincubation
T2 construct: purchased R&D
T2 sequence (P14735 1-1019): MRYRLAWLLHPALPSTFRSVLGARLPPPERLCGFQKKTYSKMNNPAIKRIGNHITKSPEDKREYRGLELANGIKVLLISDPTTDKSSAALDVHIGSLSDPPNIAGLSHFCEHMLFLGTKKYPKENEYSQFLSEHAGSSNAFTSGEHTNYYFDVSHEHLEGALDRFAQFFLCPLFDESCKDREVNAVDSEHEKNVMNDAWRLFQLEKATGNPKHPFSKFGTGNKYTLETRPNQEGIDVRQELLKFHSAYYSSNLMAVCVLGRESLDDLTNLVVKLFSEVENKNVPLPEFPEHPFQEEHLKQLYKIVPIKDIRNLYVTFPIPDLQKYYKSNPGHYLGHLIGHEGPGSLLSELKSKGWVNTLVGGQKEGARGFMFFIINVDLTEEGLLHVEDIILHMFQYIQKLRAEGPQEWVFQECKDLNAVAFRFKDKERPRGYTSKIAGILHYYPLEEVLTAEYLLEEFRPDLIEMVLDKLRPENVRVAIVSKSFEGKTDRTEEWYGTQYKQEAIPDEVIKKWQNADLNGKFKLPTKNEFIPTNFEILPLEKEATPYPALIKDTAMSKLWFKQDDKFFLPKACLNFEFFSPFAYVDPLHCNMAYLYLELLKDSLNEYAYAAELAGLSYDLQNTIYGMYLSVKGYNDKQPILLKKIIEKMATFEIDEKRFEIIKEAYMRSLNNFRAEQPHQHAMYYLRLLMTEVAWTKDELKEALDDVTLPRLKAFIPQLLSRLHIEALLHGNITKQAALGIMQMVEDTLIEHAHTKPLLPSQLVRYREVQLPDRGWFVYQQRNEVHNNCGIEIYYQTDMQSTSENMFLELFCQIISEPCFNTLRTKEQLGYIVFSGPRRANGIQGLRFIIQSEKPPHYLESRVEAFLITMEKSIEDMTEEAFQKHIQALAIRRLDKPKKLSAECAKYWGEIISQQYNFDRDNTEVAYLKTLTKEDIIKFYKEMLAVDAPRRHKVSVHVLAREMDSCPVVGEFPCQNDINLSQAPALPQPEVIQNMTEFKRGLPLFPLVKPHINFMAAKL
Procedure: as §1

recombinant IDE [5] = target: T2, recombinant IDE; test: Immunoblot of IDE nitration after Sin-1 incubation; assay type: biochemical; settings: Sin-1 incubated with purified recombinant IDE
Aβ1-42 [6] = target: T3, Aβ1-42 (Homo sapiens, UniProt P05067); test: Aβ aggregation assay (SDS-PAGE, immunoblot 6E10); assay type: biochemical; settings: for high molecular weight (SDS-resistant) aggregates of synthetic Aβ1-42 after incubation with the agent: 5 mM Sin-1 or 0.25 mM peroxynitrite, 18 h
T3 construct: Amyloid β 1-42 or Amyloid β 1-42 Y10A (both from rPeptide, Bogart, Ga., USA); host or cells: synthetic peptide
Procedure: (§2) (6B) Same assay as in A but samples were incubated for different time periods with PN.
(§3) Peptides were separated by 4-12% Nupage and blotted transferred nitrocelluse and incubated with antibody 6E10 (Signet). The remaining sample was stored at −20° C. and analyzed by mass spectrometry. In case of the time course experiment the reaction was stopped using Nupage sample buffer followed by incubation at 70 C for 5 min.
(§4) Aβ1-42, Aβ1-42 Y10F (Peptide Specialty Laboratories) were solubilized as previously described. For nitration samples were incubated with 0.25-0.5 mM peroxynitrate in water while vortexing. Aggregation was started by diluting samples to 25 μM using 50 mM Tris-HCl pH 7. Samples were separated by 4-12% NuPAGE and aggregates were detected using anti-body 6E10 (Signet) and 3-NTyr10-Aβ. Aggregation was expressed as a ratio between the signal above 30 kDa and the Aβ monomer, normalized to the 0 time point of Aβ1-42. Thioflavin T fluorescence assays were performed as described previously. Fluorescence was read at 446 nm (excitation) and 482 nm (emission) using a fluorescence spectrophotometer (Varian).

recombinant IDE [7] = target: T2, recombinant IDE; test: Aβ degradation assay; assay type: biochemical; settings: IDE preincubated with increasing concentration of Sin-1, then Aβ1-42 for 2 h
Text: Samples were separated by 4-12% NuPAGE and immunoblotted using antibodies PC720 against IDE and 6E10 against Aβ (5E) RIPA fractions of 12 month wild type, APP/PS1 and APP/PS1 iNOS (−/−) animals were monitored for their ability to cleave a fluorgenic peptide substrate in the presence of the neprilysin inhibitor phosphoramidon (n=4+/−SEM, one way anova followed by Tukey post hoc test, […], *p<0.05)

Aβ1-42 [8] = test: Aβ aggregation assay (SDS-PAGE, immunoblot 6E10); assay type: biochemical, human; settings: compared with Aβ1-42
Procedure: as §2, §3, §4

Aβ1-42 [9] = test: Thioflavin T aggregation assay; assay type: biochemical, human; settings: peptide treated with peroxynitrite, compared with Aβ1-42
Procedure: as §4

Aβ1-42 [10] = target: T3, Aβ1-42; test: In vitro Aβ1-42 aggregation with added nitrated Aβ1-42; assay type: biochemical; settings: 25 μM Aβ1-42, 5 h, antibody IC16
[11] = APP/PS1 mice at 3 month of age, L-NIL orally in the water from 2-3 month

T3 sequence (P05067 672-713): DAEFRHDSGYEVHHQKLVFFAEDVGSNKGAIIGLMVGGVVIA
T1 sequence (P08473 whole entry, species assumed): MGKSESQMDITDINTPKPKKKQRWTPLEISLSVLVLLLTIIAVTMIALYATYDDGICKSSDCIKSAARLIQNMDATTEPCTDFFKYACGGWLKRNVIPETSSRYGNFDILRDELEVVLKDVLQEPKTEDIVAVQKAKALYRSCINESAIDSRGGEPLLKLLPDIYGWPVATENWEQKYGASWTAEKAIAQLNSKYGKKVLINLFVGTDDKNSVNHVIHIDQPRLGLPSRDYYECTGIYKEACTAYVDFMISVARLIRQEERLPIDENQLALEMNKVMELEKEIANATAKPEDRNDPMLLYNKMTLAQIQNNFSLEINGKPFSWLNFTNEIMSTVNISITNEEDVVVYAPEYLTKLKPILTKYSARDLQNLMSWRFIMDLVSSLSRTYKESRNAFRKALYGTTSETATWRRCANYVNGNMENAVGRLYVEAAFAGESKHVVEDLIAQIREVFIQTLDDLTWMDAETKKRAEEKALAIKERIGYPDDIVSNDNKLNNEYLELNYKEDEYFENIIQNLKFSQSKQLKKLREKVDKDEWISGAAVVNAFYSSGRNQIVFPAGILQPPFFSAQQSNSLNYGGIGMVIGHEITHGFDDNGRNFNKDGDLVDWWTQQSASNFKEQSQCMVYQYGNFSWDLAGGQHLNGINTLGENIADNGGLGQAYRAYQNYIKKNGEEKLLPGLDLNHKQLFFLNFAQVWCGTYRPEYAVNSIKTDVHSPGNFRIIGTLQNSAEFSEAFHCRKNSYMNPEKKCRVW

Compound: CC(=O)N[C@@H](C(=O)O)C(C)(C)SN=O (racemic) [SNAP]
- Aβ1-42 phagocytosis (primary microglial cells; SNAP 100 μM): did not expose differences

Compound: CC(=N)NCCCC[C@H](N)C(=O)O [L-NIL, L-N6-(1-iminoethyl)-lysine]
- Aβ1-42 phagocytosis (primary microglial cells; L-NIL 10 μM): did not expose differences
- LTP (APP/PS1 mice [1]; APP/PS1 mice at 3 months of age (summary statement)): improvement
- APP/PS1 induced reduction (suppression) of early and late phase hippocampal LTP (APP/PS1 mice [1]; hippocampal slices of 3 month old mice, L-NIL from 2-3 month, 10 and after induction): completely prevented; also recorded: not existent
- working memory errors (APP/PS1 mice [2]; APP/PS1 mice at 3 and 12 months of age (summary statement)): significant reduction
- reference memory errors (APP/PS1 mice [2]; [11]): protected
- working memory errors (APP/PS1 mice [2]; [11]): to some extent
- reference memory errors (APP/PS1 mice [2]; APP/PS1 mice at 12 month of age, L-NIL from 6-12 month (post plaque, therapeutic)): reversion of APP/PS1 phenotype
- working and reference memory errors (APP/PS1 mice [2]; APP/PS1 mice treated with L-NIL, age not stated (summary statement)): reduction
- levels of insoluble and soluble Aβ40 and Aβ42 by ELISA (APP/PS1 mice [3]; 5 month old APP/PS1 mice preventively treated with L-NIL from 2-3 month): unable to detect any changes
- insoluble Aβ by immunoblot and insoluble Aβ 1-40 and Aβ 1-42 by ELISA (APP/PS1 mice [3]; 12 month old APP/PS1 mice, L-NIL from 6-12 month): strong reduction

Compound: N=c1c[n+](N2CCOCC2)[n-]o1 [Sin-1, 3-morpholino-sydnonimine]
- activity of neprilysin (recombinant neprilysin): could not detect any impact
- IDE activity (recombinant IDE [4]): almost complete inhibition
- nitration of IDE (nitrotyrosine immunoblot) (recombinant IDE [5]): modifications of IDE detectable with an nitrotyrosine specific antibody
- high molecular weight (SDS-resistant) aggregates of synthetic Aβ1-42 after incubation with the agent (Aβ1-42 [6]): strong induction; also recorded: increased generation
- degradation of Aβ1-42 by IDE (recombinant IDE [7]): decreased degradation

Compound: O=NOO [peroxynitrite]
- high molecular weight (SDS-resistant) aggregates of synthetic Aβ1-42 after incubation with the agent (Aβ1-42 [6]): increased generation
- high molecular weight (SDS-resistant) aggregates of synthetic Aβ1-42 after incubation with the agent (Aβ1-42 [6]; listed as peroxynitrit): strong induction
- increase of high molecular aggregates over time (Aβ1-42 [6]; within 24 h after peroxynitrite treatment): x-fold increase

Compound: Aβ42Y10A: modified human Aβ1-42, tyrosine at position 10 replaced by an alanine (SEQ ID NO. 2)
- high molecular weight aggregates of the mutated peptide after incubation with peroxynitrite or Sin-1 (Aβ1-42 [8]): reduced aggregation to the level of untreated Aβ1-42

Compound: Aβ42Y10F: Aβ1-42 peptide with a tyrosine to phenylalanine mutation at position 10
- formation rate of β-sheet amyloid fibril structures (thioflavin T) (Aβ1-42 [9]): prevented
- high molecular weight aggregates of the mutated peptide after incubation with peroxynitrite or Sin-1 (Aβ1-42 [8]): reduced aggregation to the level of untreated Aβ1-42

Compound: nitrated Aβ1-42: synthetic Aβ1-42 nitrated at tyrosine 10 by peroxynitrite treatment
- formation rate of β-sheet amyloid fibril structures (thioflavin T) (Aβ1-42 [9]): increased formation rate
- formation of Aβ oligomers on addition of small amounts of nitrated Aβ1-42 species (Aβ1-42 [10]): increased formation

Reference: patent US9011862B2, “Inhibitors of the nitration of amyloid β peptides and their uses in the diagnosis and treatment of Alzheimer's disease” (Rheinische Friedrich-Wilhelms-Universität Bonn, priority 2009, dated 2015)
